# Activity calls are given as the source filed them. The calls are words filed in the database; no cut-off is given here.
# Key:
# Z-138 = experiment: Antiproliferative activity against human Z138 cells assessed as inhibition of cell proliferation incubated for 72 hrs by CCK-8 assay; format: functional, cell-based; settings: Z-138, 72 h
# [1] = Induction of cell cycle arrest in mouse WEHI-3 cells assessed as increase in accumulation of cells at G2 phase at 0.5 uM incubated for 24 hrs by propidium iodide staining based flow cytometric analysis (reference value: 1.85%); format: functional
# [2] = Antiproliferative activity against human SKNO-1 cells assessed as inhibition of cell proliferation incubated for 72 hrs by CCK-8 assay; format: functional, cell-based; settings: SKNO-1, 72 h
# WEHI-3 [3] = experiment: Induction of apoptosis in mouse WEHI-3 cells assessed as increase in caspase-3 level incubated for 72 hrs by Western blotting analysis; format: functional, cell-based; settings: dose 0.625-5 µM
# Kasumi 1 [4] = experiment: Induction of cell cycle arrest in human Kasumi 1 cells assessed as increase in P21 level at 0.15 to 1.2 uM incubated for 24 hrs by Western blotting analysis; format: functional, cell-based; settings: dose 0.15-1.2 µM
# [5] = Induction of cell cycle arrest in mouse WEHI-3 cells assessed as increase in accumulation of cells at G1 phase at 0.5 uM incubated for 24 hrs by propidium iodide staining based flow cytometric analysis (reference value: 46.93%); format: functional
# [6] = Toxicity in Balb/c mouse implanted with mouse WEHI-3 cells assessed as animal survival at 100 to 200 mg/kg, po administered (4aR,6aS,7S,9aS,9bS)-2-(((S)-2-(hydroxymethyl)pyrrolidin-1-yl)methyl)-6a-methyl7 ((triisopropylsilyl)oxy)decahydrocyclopenta[f]chromen-3(2H)-one as prodrug once daily and measured after 15 days; format: organism-based; settings: in vivo, 360 h, dose 100-200 mg/kg, time 15 day
# Kasumi 1 [7] = experiment: Induction of […] in human Kasumi 1 cells assessed as increase in p-RIPK3 level at 0.625 to 5 uM incubated for 72 hrs by Western blotting analysis; format: functional, cell-based; settings: dose 0.625-5 µM
# WEHI-3 [8] = experiment: Induction of pyroptosis in mouse WEHI-3 cells assessed as increase in p-RIPK3 level at 0.625 to 5 uM incubated for 72 hrs by Western blotting analysis; format: functional, cell-based; settings: dose 0.625-5 µM
# Kasumi 1 [9] = experiment: Induction of cell cycle arrest in human Kasumi 1 cells assessed as increase in accumulation of cells at G2 phase at 0.5 uM incubated for 24 hrs by propidium iodide staining based flow cytometric analysis (reference value: 9.82%); format: functional
# Kasumi 1 [10] = experiment: Induction of cell cycle arrest in human Kasumi 1 cells assessed as increase in accumulation of cells at S phase at 0.25 uM incubated for 24 hrs by propidium iodide staining based flow cytometric analysis (reference value: 39.77%); format: functional
# WEHI-3 [11] = experiment: Induction of cell cycle arrest in mouse WEHI-3 cells assessed as increase in P21 level at 0.15 to 1.2 uM incubated for 24 hrs by Western blotting analysis; format: functional, cell-based; settings: dose 0.15-1.2 µM
# MIA PaCa-2 = experiment: Antiproliferative activity against human MIA PaCa-2 cells assessed as inhibition of cell proliferation incubated for 72 hrs by CCK-8 assay; format: functional, cell-based; settings: MIA PaCa-2, 72 h
# Kasumi 1 [12] = experiment: Induction of […] in human Kasumi 1 cells assessed as increase in p-MLKL level at 0.625 to 5 uM incubated for 72 hrs by Western blotting analysis; format: functional, cell-based; settings: dose 0.625-5 µM
# Calu-1 = experiment: Antiproliferative activity against human Calu-1 cells assessed as inhibition of cell proliferation incubated for 72 hrs by CCK-8 assay; format: functional, cell-based; settings: Calu-1, 72 h
# Kasumi 1 [13] = experiment: PANoptosis in human Kasumi 1 cells assessed as cell death at 0.6 uM incubated for 72 hrs by optical microscopic analysis; format: functional, cell-based
# Kasumi 1 [14] = experiment: Induction of cell cycle arrest in human Kasumi 1 cells assessed as increase in accumulation of cells at G1 phase at 0.25 uM incubated for 24 hrs by propidium iodide staining based flow cytometric analysis (reference value: 50.41%); format: functional
# Kasumi 1 [15] = experiment: Induction of cell differentiation in human Kasumi 1 cells assessed as increase in CD11B expression by Western blotting analysis; format: functional, cell-based; settings: dose 0.25-1 µM
# Kasumi 1 [16] = experiment: Antiproliferative activity against human Kasumi 1 cells assessed as inhibition cell proliferation incubated for 72 hrs by MTT assay; format: functional, cell-based; settings: Kasumi 1, 72 h
# Kasumi 1 [17] = experiment: Induction of cell differentiation in human Kasumi 1 cells assessed as lobulated nuclei at 1 uM incubated for 24 hrs by giemsa-Wrights staining based analysis; format: functional
# WEHI-3 [18] = experiment: Induction of cell differentiation in mouse WEHI-3 cells assessed as lobulated nuclei at 1 uM incubated for 24 hrs by giemsa-Wrights staining based analysis; format: functional
# NCI-H460 = experiment: Antiproliferative activity against human NCI-H460 cells assessed as inhibition of cell proliferation incubated for 72 hrs by CCK-8 assay; format: functional, cell-based; settings: NCI-H460, 72 h
# Kasumi 1 [19] = experiment: Induction of cell cycle arrest in human Kasumi 1 cells assessed as increase in accumulation of cells at S phase at 0.5 uM incubated for 24 hrs by propidium iodide staining based flow cytometric analysis (reference value: 39.77%); format: functional
# Kasumi 1 [20] = experiment: Induction of cell cycle arrest in human Kasumi 1 cells assessed as increase in accumulation of cells at G1 phase at 1 uM incubated for 24 hrs by propidium iodide staining based flow cytometric analysis (reference value: 50.41%); format: functional
# [21] = Induction of cell cycle arrest in mouse WEHI-3 cells assessed as increase in accumulation of cells at S phase at 0.25 uM incubated for 24 hrs by propidium iodide staining based flow cytometric analysis (reference value: 51.22%); format: functional
# [22] = Induction of cell cycle arrest in mouse WEHI-3 cells assessed as increase in accumulation of cells at G2 phase at 1 uM incubated for 24 hrs by propidium iodide staining based flow cytometric analysis (reference value: 1.85%); format: functional
# Kasumi 1 [23] = experiment: Disruption of carbon metabolic pathway in human Kasumi 1 cells by KEGG enrichment analysis; format: functional, cell-based
# HT-29 = experiment: Antiproliferative activity against human HT-29 cells assessed as inhibition of cell proliferation incubated for 72 hrs by CCK-8 assay; format: functional, cell-based; settings: HT-29, 72 h
# Kasumi 1 [24] = experiment: Induction of cell cycle arrest in human Kasumi 1 cells assessed as increase in accumulation of cells at G2 phase at 1 uM incubated for 24 hrs by propidium iodide staining based flow cytometric analysis (reference value: 9.82%); format: functional
# Kasumi 1 [25] = experiment: Induction of pyroptosis in human Kasumi 1 cells assessed as effect on cleaved N-GSDMB at 0.6 to 2.5 uM incubated for 24 hrs by Western blotting analysis; format: functional, cell-based; settings: dose 0.6-2.5 µM
# Jurkat = experiment: Antiproliferative activity against human Jurkat cells assessed as inhibition of cell proliferation incubated for 72 hrs by CCK-8 assay; format: functional, cell-based
# Kasumi 1 [26] = experiment: Inhibition of colony formation in human Kasumi 1 cells incubated for 15 days by crystal violet staining based analysis; format: functional, cell-based; settings: dose 0.5-1 µM, time 15.0 day
# MV4-11 = experiment: Antiproliferative activity against human MV4-11 cells assessed as inhibition cell proliferation incubated for 72 hrs by MTT assay; format: functional, cell-based; settings: MV4-11, 72 h
# Kasumi 1 [27] = experiment: Induction of apoptosis in human Kasumi 1 cells assessed as increase in cleaved PARP-1 level incubated for 72 hrs by Western blotting analysis; format: functional, cell-based; settings: dose 0.625-5 µM
# Kasumi 1 [28] = experiment: Induction of cell cycle arrest in human Kasumi 1 cells assessed as increase in accumulation of cells at G2 phase at 0.25 uM incubated for 24 hrs by propidium iodide staining based flow cytometric analysis (reference value: 9.82%); format: functional
structure (smiles),measurement,setting,value
C=C1C[C@@H]2[C@@H](CC[C@]3(C)[C@@H](O[Si](C(C)C)(C(C)C)C(C)C)CC[C@@H]23)OC1=O,IC50,Z-138,1.88 µM
same,Activity,[1],3.33%
same,IC50,[2],1.24 µM
same,Activity,WEHI-3 [3],Dose-dependent-effect
same,Activity,Kasumi 1 [4],Active
same,Activity,[5],53.15%
same,Activity,[6],Non-toxic
same,Activity,Kasumi 1 [7],Active
same,Activity,WEHI-3 [8],Active
same,Activity,Kasumi 1 [9],14.84%
same,Activity,Kasumi 1 [10],36.36%
same,Activity,WEHI-3 [11],Active
same,IC50,MIA PaCa-2,1.71 µM
same,Activity,Kasumi 1 [12],Active
same,IC50,Calu-1,3.6 µM
same,Activity,Kasumi 1 [13],Active
same,Activity,Kasumi 1 [14],52.67%
same,Activity,Kasumi 1 [15],Dose-dependent-effect
same,IC50,Kasumi 1 [16],0.57 µM
same,Activity,Kasumi 1 [17],Active
same,Activity,WEHI-3 [18],Active
same,IC50,NCI-H460,2.82 µM
same,Activity,Kasumi 1 [19],31.64%
same,Activity,Kasumi 1 [20],58.52%
same,Activity,[21],46.46%
same,Activity,[22],3.39%
same,Activity,Kasumi 1 [23],Active
same,IC50,HT-29,1.74 µM
same,Activity,Kasumi 1 [24],18.95%
same,Activity,Kasumi 1 [25],Active
same,IC50,Jurkat,2.6 µM
same,inhibition,Kasumi 1 [26],Dose-dependent-effect
same,IC50,MV4-11,1.75 µM
same,Activity,Kasumi 1 [27],Dose-dependent-effect
same,Activity,Kasumi 1 [28],10.77%
